In patent US20090018134A1, “Compounds - 945” (AstraZeneca AB, priority 2007, published 2009):

Biological target: T1, mTOR (Homo sapiens, UniProt P42345)
T1 construct: FLAG; made in house
Test: In Vitro mTOR Kinase Assay (Echo), Test (a)(ii)
Assay type: biochemical
Conditions: table of enzyme assay Test (a)(ii); read-out: Test (a)(ii) IC50
Method in brief: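 FLAG-tagged human mTOR truncation (residues 1362-2549) expressed in HEK293 cells and FLAG-purified. Compounds dispensed acoustically, reaction 2 h at room temperature, stopped with EDTA. Phosphorylation of biotinylated peptide detected by AlphaScreen with anti-p70 S6K (T389) antibody overnight; IC50 reported.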

T1 sequence (P42345 1362-2549): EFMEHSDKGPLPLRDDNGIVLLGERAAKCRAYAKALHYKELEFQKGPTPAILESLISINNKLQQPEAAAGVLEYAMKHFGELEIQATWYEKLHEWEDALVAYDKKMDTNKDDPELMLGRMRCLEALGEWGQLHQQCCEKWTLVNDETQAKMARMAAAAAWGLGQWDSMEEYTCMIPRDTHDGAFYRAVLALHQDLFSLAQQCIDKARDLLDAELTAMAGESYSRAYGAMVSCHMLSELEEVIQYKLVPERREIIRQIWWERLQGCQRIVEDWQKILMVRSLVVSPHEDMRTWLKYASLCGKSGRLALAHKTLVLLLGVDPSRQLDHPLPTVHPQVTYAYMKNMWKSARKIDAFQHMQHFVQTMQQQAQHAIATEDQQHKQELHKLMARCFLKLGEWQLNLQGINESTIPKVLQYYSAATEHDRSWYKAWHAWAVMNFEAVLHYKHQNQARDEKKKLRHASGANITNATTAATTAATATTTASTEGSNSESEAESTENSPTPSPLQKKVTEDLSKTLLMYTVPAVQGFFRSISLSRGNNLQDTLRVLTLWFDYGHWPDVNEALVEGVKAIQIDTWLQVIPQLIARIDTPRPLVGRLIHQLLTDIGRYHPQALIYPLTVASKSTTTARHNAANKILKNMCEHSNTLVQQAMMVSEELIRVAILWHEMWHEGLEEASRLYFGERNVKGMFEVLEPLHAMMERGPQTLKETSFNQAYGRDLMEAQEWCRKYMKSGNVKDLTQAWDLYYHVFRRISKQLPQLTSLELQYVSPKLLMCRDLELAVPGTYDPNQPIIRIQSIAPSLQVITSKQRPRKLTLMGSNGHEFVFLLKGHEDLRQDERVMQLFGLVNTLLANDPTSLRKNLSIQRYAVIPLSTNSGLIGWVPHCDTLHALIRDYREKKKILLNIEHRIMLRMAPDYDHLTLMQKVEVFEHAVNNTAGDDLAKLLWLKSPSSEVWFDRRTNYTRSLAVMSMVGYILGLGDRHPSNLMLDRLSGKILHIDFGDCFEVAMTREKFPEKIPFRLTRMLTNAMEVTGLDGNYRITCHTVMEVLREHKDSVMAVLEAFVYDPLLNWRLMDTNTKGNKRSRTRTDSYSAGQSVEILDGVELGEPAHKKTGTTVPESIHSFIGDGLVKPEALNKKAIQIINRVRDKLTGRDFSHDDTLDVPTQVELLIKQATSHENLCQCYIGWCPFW

Compound | IC50 [nM]
C[C@H]1COCCN1c1cc(C2(S(=O)(=O)C3CCCCC3)CC2)nc(-c2ccc(NC(=O)NC3CCC3)cc2)n1 [Example 26a, 3-cyclobutyl-1-[4-[4-(1-cyclohexylsulfonylcyclopropyl)-6-[(3S)-3-methylmorpholin-4-yl]pyrimidin-2-yl]phenyl]urea] | 6.72
CCNC(=O)Nc1ccc(-c2nc(N3CCOC[C@@H]3C)cc(C3(S(=O)(=O)C4CCCCC4)CC3)n2)cc1 [Example 26b, 3-[4-[4-(1-cyclohexylsulfonylcyclopropyl)-6-[(3S)-3-methylmorpholin-4-yl]pyrimidin-2-yl]phenyl]-1-ethylurea] | 3.9
C[C@H]1COCCN1c1cc(C2(S(=O)(=O)C3CCCCC3)CC2)nc(-c2ccc(NC(=O)NCCN(C)C)cc2)n1 [Example 26c, 1-[4-[4-(1-cyclohexylsulfonylcyclopropyl)-6-[(3S)-3-methylmorpholin-4-yl]pyrimidin-2-yl]phenyl]-3-(2-dimethylaminoethyl)urea] | 119
C[C@H]1COCCN1c1cc(C2(S(=O)(=O)C3CCCCC3)CC2)nc(-c2ccc(NC(=O)NCCO)cc2)n1 [Example 26d, 1-[4-[4-(1-cyclohexylsulfonylcyclopropyl)-6-[(3S)-3-methylmorpholin-4-yl]pyrimidin-2-yl]phenyl]-3-(2-hydroxyethyl)urea] | 1.2
CNC(=O)Nc1ccc(-c2nc(N3CCOC[C@@H]3C)cc(C3(S(=O)(=O)C4CCCCC4)CC3)n2)cc1 [Example 26e, 1-[4-[4-(1-cyclohexylsulfonylcyclopropyl)-6-[(3S)-3-methylmorpholin-4-yl]pyrimidin-2-yl]phenyl]-3-methylurea] | 3.95
C[C@H]1COCCN1c1cc(C2(S(=O)(=O)C3CCCCC3)CC2)nc(-c2ccc(NC(=O)NC(C)(C)CO)cc2)n1 [Example 26f, 1-[4-[4-(1-cyclohexylsulfonylcyclopropyl)-6-[(3S)-3-methylmorpholin-4-yl]pyrimidin-2-yl]phenyl]-3-(1-hydroxy-2-methylpropan-2-yl)urea] | 4.57
C[C@H]1COCCN1c1cc(C2(S(=O)(=O)C3CCCCC3)CC2)nc(-c2ccc(NC(=O)NCCCO)cc2)n1 [Example 26g, 1-[4-[4-(1-cyclohexylsulfonylcyclopropyl)-6-[(3S)-3-methylmorpholin-4-yl]pyrimidin-2-yl]phenyl]-3-(3-hydroxypropyl)urea] | 7.46
C[C@H]1COCCN1c1cc(C2(S(=O)(=O)C3CCCCC3)CC2)nc(-c2ccc(NC(=O)Nc3cnn(C)c3)cc2)n1 [Example 26h, 1-[4-[4-(1-cyclohexylsulfonylcyclopropyl)-6-[(3S)-3-methylmorpholin-4-yl]pyrimidin-2-yl]phenyl]-3-(1-methylpyrazol-4-yl)urea] | 4
C[C@H]1COCCN1c1cc(C2(S(=O)(=O)c3ccc(Cl)cc3)CC2)nc(-c2ccc(NC(=O)NC3CCC3)cc2)n1 [Example 27a, 1-[4-[4-[1-(4-chlorophenyl)sulfonylcyclopropyl]-6-[(3S)-3-methylmorpholin-4-yl]pyrimidin-2-yl]phenyl]-3-cyclobutylurea] | 3.88
C[C@H]1COCCN1c1cc(C2(S(=O)(=O)c3ccc(Cl)cc3)CC2)nc(-c2ccc(NC(=O)Nc3ccccn3)cc2)n1 [Example 27b, 1-[4-[4-[1-(4-chlorophenyl)sulfonylcyclopropyl]-6-[(3S)-3-methylmorpholin-4-yl]pyrimidin-2-yl]phenyl]-3-pyridin-2-ylurea] | 4.25
CC(C)CNC(=O)Nc1ccc(-c2nc(N3CCOC[C@@H]3C)cc(C3(S(=O)(=O)c4ccc(Cl)cc4)CC3)n2)cc1 [Example 27c, 1-[4-[4-[1-(4-chlorophenyl)sulfonylcyclopropyl]-6-[(3S)-3-methylmorpholin-4-yl]pyrimidin-2-yl]phenyl]-3-(2-methylpropyl)urea] | 14
CC(C)NC(=O)Nc1ccc(-c2nc(N3CCOC[C@@H]3C)cc(C3(S(=O)(=O)c4ccc(Cl)cc4)CC3)n2)cc1 [Example 27d, 1-[4-[4-[1-(4-chlorophenyl)sulfonylcyclopropyl]-6-[(3S)-3-methylmorpholin-4-yl]pyrimidin-2-yl]phenyl]-3-propan-2-ylurea] | 3.07
CCCNC(=O)Nc1ccc(-c2nc(N3CCOC[C@@H]3C)cc(C3(S(=O)(=O)c4ccc(Cl)cc4)CC3)n2)cc1 [Example 27i, 3-[4-[4-[1-(4-chlorophenyl)sulfonylcyclopropyl]-6-[(3S)-3-methylmorpholin-4-yl]pyrimidin-2-yl]phenyl]-1-propylurea] | 3.02
C[C@H]1COCCN1c1cc(C2(S(=O)(=O)c3ccc(Cl)cc3)CC2)nc(-c2ccc(NC(=O)Nc3ccc(C(F)(F)F)cc3)cc2)n1 [Example 27j, 1-[4-[4-[1-(4-chlorophenyl)sulfonylcyclopropyl]-6-[(3S)-3-methylmorpholin-4-yl]pyrimidin-2-yl]phenyl]-3-[4-(trifluoromethyl)phenyl]urea] | 7.61
C[C@H]1COCCN1c1cc(C2(S(=O)(=O)c3ccc(Cl)cc3)CC2)nc(-c2ccc(NC(=O)NC(C)(C)CO)cc2)n1 [Example 27k, 1-[4-[4-[1-(4-chlorophenyl)sulfonylcyclopropyl]-6-[(3S)-3-methylmorpholin-4-yl]pyrimidin-2-yl]phenyl]-3-(1-hydroxy-2-methylpropan-2-yl)urea] | 4.62
C[C@H]1COCCN1c1cc(C2(S(=O)(=O)c3ccc(Cl)cc3)CC2)nc(-c2ccc(NC(=O)NCCCO)cc2)n1 [Example 27l, 1-[4-[4-[1-(4-chlorophenyl)sulfonylcyclopropyl]-6-[(3S)-3-methylmorpholin-4-yl]pyrimidin-2-yl]phenyl]-3-(3-hydroxypropyl)urea] | 1.12
C[C@H]1COCCN1c1cc(C2(S(=O)(=O)c3ccc(Cl)cc3)CC2)nc(-c2ccc(NC(=O)Nc3cnn(C)c3)cc2)n1 [Example 27m, 1-[4-[4-[1-(4-chlorophenyl)sulfonylcyclopropyl]-6-[(3S)-3-methylmorpholin-4-yl]pyrimidin-2-yl]phenyl]-3-(1-methylpyrazol-4-yl)urea] | 1.44
C[C@H]1COCCN1c1cc(C2(S(=O)(=O)c3ccccn3)CC2)nc(-c2ccc(NC(=O)NC3CCC3)cc2)n1 [Example 28a, 3-cyclobutyl-1-[4-[4-[(3S)-3-methylmorpholin-4-yl]-6-(1-pyridin-2-ylsulfonylcyclopropyl)pyrimidin-2-yl]phenyl]urea] | 2.53
C[C@H]1COCCN1c1cc(C2(S(=O)(=O)c3ccccn3)CC2)nc(-c2ccc(NC(=O)Nc3ccccn3)cc2)n1 [Example 28b, 1-[4-[4-[(3S)-3-methylmorpholin-4-yl]-6-(1-pyridin-2-ylsulfonylcyclopropyl)pyrimidin-2-yl]phenyl]-3-pyridin-2-ylurea] | 1.49
CC(C)CNC(=O)Nc1ccc(-c2nc(N3CCOC[C@@H]3C)cc(C3(S(=O)(=O)c4ccccn4)CC3)n2)cc1 [Example 28c, 1-[4-[4-[(3S)-3-methylmorpholin-4-yl]-6-(1-pyridin-2-ylsulfonylcyclopropyl)pyrimidin-2-yl]phenyl]-3-(2-methylpropyl)urea] | 8.47
CC(C)NC(=O)Nc1ccc(-c2nc(N3CCOC[C@@H]3C)cc(C3(S(=O)(=O)c4ccccn4)CC3)n2)cc1 [Example 28d, 1-[4-[4-[(3S)-3-methylmorpholin-4-yl]-6-(1-pyridin-2-ylsulfonylcyclopropyl)pyrimidin-2-yl]phenyl]-3-propan-2-ylurea] | 2.37
CNC(=O)Nc1ccc(-c2nc(N3CCOC[C@@H]3C)cc(C3(S(=O)(=O)c4ccccn4)CC3)n2)cc1 [Example 28e, 3-methyl-1-[4-[4-[(3S)-3-methylmorpholin-4-yl]-6-(1-pyridin-2-ylsulfonylcyclopropyl)pyrimidin-2-yl]phenyl]urea] | 0.434
C[C@H]1COCCN1c1cc(C2(S(=O)(=O)c3ccccn3)CC2)nc(-c2ccc(NC(=O)NCCN(C)C)cc2)n1 [Example 28f, 3-(2-dimethylaminoethyl)-1-[4-[4-[(3S)-3-methylmorpholin-4-yl]-6-(1-pyridin-2-ylsulfonylcyclopropyl)pyrimidin-2-yl]phenyl]urea] | 67.4
CCCNC(=O)Nc1ccc(-c2nc(N3CCOC[C@@H]3C)cc(C3(S(=O)(=O)c4ccccn4)CC3)n2)cc1 [Example 28h, 3-[4-[4-[(3S)-3-methylmorpholin-4-yl]-6-(1-pyridin-2-ylsulfonylcyclopropyl)pyrimidin-2-yl]phenyl]-1-propylurea] | 0.93
C[C@H]1COCCN1c1cc(C2(S(=O)(=O)c3ccccn3)CC2)nc(-c2ccc(NC(=O)Nc3ccc(C(F)(F)F)cc3)cc2)n1 [Example 28i, 1-[4-[4-[(3S)-3-methylmorpholin-4-yl]-6-(1-pyridin-2-ylsulfonylcyclopropyl)pyrimidin-2-yl]phenyl]-3-[4-(trifluoromethyl)phenyl]urea] | 1.53
C[C@H]1COCCN1c1cc(C2(S(=O)(=O)c3ccccn3)CC2)nc(-c2ccc(NC(=O)NC(C)(C)CO)cc2)n1 [Example 28j, 3-(1-hydroxy-2-methylpropan-2-yl)-1-[4-[4-[(3S)-3-methylmorpholin-4-yl]-6-(1-pyridin-2-ylsulfonylcyclopropyl)pyrimidin-2-yl]phenyl]urea] | 5.57
C[C@H]1COCCN1c1cc(C2(S(=O)(=O)c3ccccn3)CC2)nc(-c2ccc(NC(=O)NCCCO)cc2)n1 [Example 28k, 3-(3-hydroxypropyl)-1-[4-[4-[(3S)-3-methymorpholin-4-yl]-6-(1-pyridin-2-ylsulfonylcyclopropyl)pyrimidin-2-yl]phenyl]urea] | 0.954
C[C@H]1COCCN1c1cc(C2(S(=O)(=O)c3ccccn3)CC2)nc(-c2ccc(NC(=O)Nc3cnn(C)c3)cc2)n1 [Example 28l, 1-[4-[4-[(3S)-3-methylmorpholin-4-yl]-6-(1-pyridin-2-ylsulfonylcyclopropyl)pyrimidin-2-yl]phenyl]-3-(1-methylpyrazol-4-yl)urea] | 0.442
C[C@H]1COCCN1c1cc(C2(S(C)(=O)=O)CC2)nc(-c2ccc(NC(N)=O)cc2)n1 [Example 29, [4-[4-[(3S)-3-Methylmorpholin-4-yl]-6-(1-methylsulfonylcyclopropyl)pyrimidin-2-yl]phenyl]urea] | 4.2
